Source: paper PMC9404989, “Design and Evaluation of Short Bovine Lactoferrin-Derived Antimicrobial Peptides against Multidrug-Resistant Enterococcus faecium” (Antibiotics, 2022)
Read-outs that look alike come from different tables or passages of the source. No end group written: not given here.

Tests used:
E. faecalis OG1RF = experiment: MIC assay, E. faecalis OG1RF; assay type: cell-based; conditions: rifampin and fusidic acid resistant
Experimental: (§1) To determine the MICs of peptides, we used the broth microdilution method described by the Clinical and Laboratory Standards Institute. We made serial dilutions of 10× concentration (10 µL) for each peptide in duplicates in 96-well plates (Cat No. 3595, Corning, New York, NY, USA). We added 90 µL of logarithmic-phase bacteria at 5 × 10^5 CFU/mL (in BHI media) to the peptides and then incubated the plates at 37 °C for 18 h. We measured the OD600 absorbance readings using the Spectra Max i3x spectrophotometer (Molecular Devices, San Jose, CA, USA) and determined the MIC as the peptide concentration that inhibits the growth of bacteria.

[1] = HPLC retention time on C18 reverse-phase column; assay type: physicochemical
Text: Table 1 Physical parameters and the minimal inhibitory concentration (µg/mL) of designed peptides against E. faecium. | column: rT ^f (min)

E. faecium strain C68 [2] = experiment: microbe, parasite or virus in culture; assay type: cell-based, Enterococcus faecium; conditions: strain C68, 18 h
Experimental: as §1
To investigate the activity of peptides in various salt concentrations, we included physiologically relevant salts in the BHI medium.

E. faecium strain C68 [3] = experiment: microbe, parasite or virus in culture; assay type: cell-based, Enterococcus faecium; conditions: strain C68, 18 h; remark: listed apart in the source
Experimental: as §1

E. faecalis MMH594 = experiment: microbe, parasite or virus in culture; assay type: cell-based; conditions: MMH594, 18 h
Experimental: as §1

E. faecalis V583 = experiment: microbe, parasite or virus in culture; assay type: cell-based; conditions: V583, 18 h
Experimental: as §1

S. aureus MW2 = experiment: microbe, parasite or virus in culture; assay type: cell-based, Staphylococcus aureus; conditions: MW2, 18 h
Experimental: as §1

[4] = system: E. faecium strain C68 established biofilms; assay type: cell-based, Enterococcus faecium
Experimental: We prepared exponential cultures of E. faecium strain C68 (adjusted to 1 × 10^8 CFU/mL) in BHI media (supplemented with 0.2% glucose) from overnight grown cultures. We added 100 µL of the bacterial culture to wells of flat-bottomed 96-well polystyrene microtiter plates (Cat No. 3595, Corning, NY, USA). We then incubated the plates at 37 °C for 24 h in static conditions to allow biofilm formation. After incubation, we carefully pipetted out the media and washed the wells with PBS (Gibco, Waltham, MA, USA) to remove loosely attached planktonic cells. We treated the established biofilms in each well with 10 µL of serially diluted 10× peptide solution, followed by the addition of 90 μL of BHI media (supplemented with 0.2% glucose). The plates were incubated for another 24 h at 37 °C before processing for biomass and live-cell contents. We quantitated the concentration of peptide that disrupts 50% of established biofilms (MBEC50).

[5] = system: E. faecium E007 established biofilms; assay type: cell-based, Enterococcus faecium; conditions: for concentration killing 50% of live bacteria cells in established biofilms: strain E007, 24 h established biofilms, XTT; for established biomass disrupted: strain E007, at 32 µg/mL
E. faecium WC176 = experiment: organism not typed; assay type: cell-based, Enterococcus faecium; conditions: WC176, 18 h
Experimental: as §1

E. faecium D24 = experiment: microbe, parasite or virus in culture; assay type: cell-based, Enterococcus faecium; conditions: D24, 18 h
Experimental: as §1

E. faecium D14 = experiment: microbe, parasite or virus in culture; assay type: cell-based, Enterococcus faecium; conditions: D14, 18 h
Experimental: as §1

E. faecium E007 = experiment: microbe, parasite or virus in culture; assay type: cell-based, Enterococcus faecium; conditions: E007, 18 h
Experimental: as §1

E. faecium D25 = experiment: microbe, parasite or virus in culture; assay type: cell-based, Enterococcus faecium; conditions: D25, 18 h
Experimental: as §1

E. faecium D29 = experiment: microbe, parasite or virus in culture; assay type: cell-based, Enterococcus faecium; conditions: D29, 18 h
Experimental: as §1

[6] = system: drug-resistant E. faecium clinical isolates; assay type: cell-based, Enterococcus faecium; conditions: strains D14, D24, D25, D29, C68 and WC176
Experimental: as §1

[7] = system: E. faecium C68 biofilm formation; experiment: Prevention of E. faecium biofilm formation (XTT, crystal violet); assay type: cell-based, Enterococcus faecium; conditions: XTT, 24 h, BHI + 0.2% glucose
Experimental: We evaluated the ability of the lactoferrin-derived peptides to inhibit biofilm formation following an established protocol with modifications. In short, we prepared exponential cultures of E. faecium C68 (adjusted to OD600 = 0.01) in BHI media (supplemented with 0.2% glucose) from overnight grown cultures. We added 90 µL of the bacterial culture to 10 µL of serially diluted 10× peptide solution in flat-bottomed 96-well polystyrene microtiter plates (Cat No. 3595, Corning, NY, USA) and then incubated the plates at 37 °C for 24 h. We considered media containing bacteria and water as the positive control, while media with water served as the negative control. After incubation, we carefully pipetted out the media and washed the wells with PBS (Gibco, Waltham, MA, USA) to remove loosely attached planktonic cells. We quantified the biomass by staining the biofilms with crystal violet following an established protocol and quantitated the concentration of peptide that inhibits 50% of biofilm formation (MBIC50). Furthermore, we measured the live cell count of the biofilms using XTT [2,3-bis(2-methyloxy-4-nitro-5-sulfophenyl)-2H-tertazolium-5-carboxanilide] dye (ATCC, Manassas, VA, USA). We calculated the percentage of biofilm growth by assuming that there was 100% biofilm growth in wells with bacteria without peptide treatment.

| Substance | MIC E. faecalis OG1RF (E. faecalis OG1RF) | rT (HPLC retention time) [1] | MIC + CaCl2 (2.5 mM) (E. faecium strain C68 [2]) | MIC + MgSO4 (1 mM) (E. faecium strain C68 [2]) | MIC + NaCl (150 mM) (E. faecium strain C68 [2]) | MIC + ZnSO4 (8 µM) (E. faecium strain C68 [2]) | MIC EF C68 (E. faecium strain C68 [3]) | MIC Media Only (E. faecium strain C68 [3]) | MIC E. faecalis MMH594 (E. faecalis MMH594) | MIC E. faecalis V583 (E. faecalis V583) | MIC S. aureus MW2 (S. aureus MW2) | concentration killing 50% of live bacteria cells in established biofilms [5] | established biomass disrupted [5] | MIC WC176 (E. faecium WC176) | MIC D24 (E. faecium D24) | MIC D14 (E. faecium D14) | MIC E007 (E. faecium E007) | MIC D25 (E. faecium D25) | MIC D29 (E. faecium D29) | also measured |
| --- | --- | --- | --- | --- | --- | --- | --- | --- | --- | --- | --- | --- | --- | --- | --- | --- | --- | --- | --- | --- |
| RLWLWRRRWLWR-NH2 [Peptide 4L] | > 32 µg/mL | 18.377 min | >32 µg/mL | 8 µg/mL | 8 µg/mL | 4 µg/mL | 4 µg/mL | 4 µg/mL | > 32 µg/mL | > 32 µg/mL | > 32 µg/mL |  |  |  |  |  |  |  |  |  |
| RRWLWRL-NH2 [Peptide 2L] | > 32 µg/mL | 13.321 min |  |  |  |  | >32 µg/mL | >32 µg/mL | > 32 µg/mL | > 32 µg/mL | > 32 µg/mL |  |  |  |  |  |  |  |  |  |
| RRWLWRRLWLWR-NH2 [Peptide 7L] | > 32 µg/mL | 16.290 min | 8 µg/mL | 4 µg/mL | 4 µg/mL | 2 µg/mL | 4 µg/mL | 4 µg/mL | > 32 µg/mL | > 32 µg/mL | > 32 µg/mL | > 32 µg/mL | 25–30% | 16 µg/mL | 4 µg/mL | 8 µg/mL | 4 µg/mL | 4 µg/mL | 8 µg/mL | MBEC50 (established biomass) ([4]; 24 h established biofilms, 24 h treatment, crystal violet): failed to achieve an MBEC50 |
| RRWLWRRRWLWL-NH2 [Peptide 8L] | > 32 µg/mL | 21.235 min | 16 µg/mL | 4 µg/mL | 4 µg/mL | 2 µg/mL | 4 µg/mL | 4 µg/mL | > 32 µg/mL | > 32 µg/mL | > 32 µg/mL | > 32 µg/mL | 25–30% | 16 µg/mL | 8 µg/mL | 16 µg/mL | 4 µg/mL | 8 µg/mL | 32 µg/mL | MIC range against clinical isolates of E. faecium [6]: 8 to 32 µg/mL; MBEC50 (established biomass) ([4]; strain C68 established biofilms, 24 h): 30 µg/mL; concentration killing 50% of live bacterial cells during biofilm formation stage [7]: 2.8 µg/mL |
| RRWQWRLLLL-NH2 [Peptide 1L] | > 32 µg/mL | 18.083 min | 32 µg/mL | 8 µg/mL | 4 µg/mL | 4 µg/mL | 16 µg/mL | 16 µg/mL | > 32 µg/mL | > 32 µg/mL | > 32 µg/mL |  |  |  |  |  |  |  |  |  |
